Data from article PMC4985813, “Binding site elucidation and structure guided design of macrocyclic IL-17A antagonists” (Scientific Reports, 2016).
Where “and” joins values, the source holds several entries; their conditions need not be identical. Equal entries are not always repeated. Entries after “also recorded” stand apart in the source; their conditions may differ. Where two headings read alike, the source gives them in different places. Values belong to the molecule of their own block, whether it stands above or below them.

Columns and labels:
[1] = molecular target: T1, IL-17A/IL-17RA interaction (Homo sapiens, UniProt Q16552); test: FRET assay of IL-17A/IL-17RA interaction; assay type: biochemical
T1 construct: purchased R&D Systems (IL-17RA-Fc only)
T1 sequence (Q16552 24-155): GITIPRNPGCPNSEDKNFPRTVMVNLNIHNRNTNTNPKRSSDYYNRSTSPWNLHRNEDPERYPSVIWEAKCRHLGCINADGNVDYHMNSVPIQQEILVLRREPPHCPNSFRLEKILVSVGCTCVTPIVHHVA
Description: Maximal FRET was observed when IL-17A was bound to IL-17RA and diminished FRET was observed when IL-17A was separated from IL-17RA. […] Compounds were tested using a half-log dilution series of 11 concentrations. The IL-17A was incubated with the Europium-Streptavidin to 1.5X final assay concentration for 1 h at room temperature. Compounds were prepared at 50X final concentration in 100% DMSO and 300 nL were added to a 384-well white assay plate (Greiner). 10 μL of the Europium labeled IL-17A was added to the compounds and incubated at room temperature for 1 h. […] The plates were covered and incubated at room temperature for 3 h. The FRET signal of the IL-17A/IL-17RA interaction was measured using an EnVision Multilabel plate reader (PerkinElmer). […] A four-parameter logistic nonlinear regression model using the percent inhibition at each concentration was used to calculate an IC50 for each compound.

[2] = molecular target: T2, full-length recombinant IL-17A (Homo sapiens, UniProt Q16552); test: Covalent labeling of IL-17A with sulfonyl fluoride probe (pull-down, protein mass analysis, peptide mapping); assay type: biochemical
T2 construct: made in house
T2 sequence (Q16552 24-155): as above
Description: Human recombinant IL-17A expressed in E. coli (5 μM) was incubated with and without compound 4 (50 μM) for 20 h at 37 °C in Dulbecco’s phosphate-buffered saline solution. To analyze cytokine homodimer, 10 μL of each sample was subjected to LC-MS using an Acquity class H UPLC (Waters) interfaced to a Xevo G2–S Q-Tof mass spectrometer (Waters). Chromatography was performed on a 2.1 × 100 mm Acquity BEH 300 Å C4 column (1.7 μm silica) (Waters) at 40 °C using the following gradient: 5% B/1 min, 5–85% B/10 min at 0.4 mL/min. Solvents: A, 0.05% formic acid in water; B, 0.05% formic acid in acetonitrile. […]
100 μL of each reaction sample was treated with three volumes of acetone at −20 °C for 2 h, after which the mixture was centrifuged at 14,000 × g for 10 min. […] Each digest was next treated with 4.5 mM DTT for 15 min at 37 °C, and 8 μL of each digest was analyzed on an Agilent Model 1100 HPLC system interfaced with a LTQ Orbitrap XL mass spectrometer (Thermo). […]
0.5 μM full length IL-17A (R&D Systems) was pre-incubated with DMSO or 50 μM a control compound in PBS at room temperature for 30 min, after which 5 μM sulfonyl fluoride probe compound 4 was added to the protein mixture (final sample volume 50 μl) and incubated for 1 h. […] Eluates were separated on a 12% NuPAGE Bis-Tris gel, transferred to a PVDF membrane, and then analyzed by immunoblot (anti-IL17A antibody from R&D Systems).

[3] = molecular target: T3, IL-17F homodimer (Homo sapiens, UniProt Q96PD4); test: SPR selectivity binding, immobilized IL-17F; settings: for binding to IL-17F (SPR): concentrations up to 13.3 μM
T3 construct: purchased R&D Systems, Minneapolis, MN
T3 sequence (Q96PD4 31-163): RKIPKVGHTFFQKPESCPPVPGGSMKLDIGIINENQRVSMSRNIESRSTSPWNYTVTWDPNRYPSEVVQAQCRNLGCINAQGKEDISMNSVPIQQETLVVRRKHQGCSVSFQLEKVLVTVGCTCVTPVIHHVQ
Description: (§1) The IL-17 SPR binding assay was run on a Biacore 3000 SPR instrument (GE Healthcare). Biotinylated Bap-tagged human IL-17A[23], was captured on a Biacore Streptavidin chip to achieve a protein density of 2500–3500 RUs on the surface. The SPR running buffer was 10 mM HEPES, pH 7.4, 150 mM NaCl, 0.01% P20 with 3% DMSO. Compound samples were injected at a flow rate of 50 μL/min for 180 s association and followed by running buffer for at least 600 s to detect dissociation. Compound concentrations were varied across a 2–3 fold dilution series. Each concentration was tested at least in duplicate. When compounds were tested in the presence of HAP, the running buffer contained 50 nM of HAP and all samples were prepared in the running buffer. Multiple blank injections were run before and after each compound series for references. The data were processed and analyzed with Scrubber 2.0 (BioLogical Software) and Biaeval software (GE Healthcare) to calculate the binding constants along with on- and off-rates.
(§2) Biotinylated BAP-tagged IL-17RA ECD[17] and chemically biotinylated IL-17F (R&D Systems, Minneapolis, MN) were separately immobilized on Biacore Streptavidin chips to permit selectivity testing of compounds. The binding experiments were carried out as described above.

[4] = molecular target: T4, IL-17RA (Homo sapiens, UniProt Q96F46); test: SPR selectivity binding, immobilized IL-17RA ECD
T4 construct: Biotinylated BAP-tagged IL-17RA ECD[17]
T4 sequence (Q96F46 33-320 limits assumed): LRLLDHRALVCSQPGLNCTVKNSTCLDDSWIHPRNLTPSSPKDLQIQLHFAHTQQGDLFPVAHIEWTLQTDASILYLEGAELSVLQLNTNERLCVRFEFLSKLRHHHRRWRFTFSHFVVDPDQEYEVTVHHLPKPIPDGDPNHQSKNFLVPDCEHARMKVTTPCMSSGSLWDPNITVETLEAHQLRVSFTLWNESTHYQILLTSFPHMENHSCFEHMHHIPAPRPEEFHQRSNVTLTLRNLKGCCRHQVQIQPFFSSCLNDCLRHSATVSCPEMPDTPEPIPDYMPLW
Description: as §1, §2

[5] = system: keratinocytes stimulated by TNF-α alone; test: Primary human keratinocytes cell assay, baseline IL-8 production stimulated by TNF-α alone; assay type: cell-based; settings: Keratinocyte, TNF-α 10 ng/mL alone
Description: (§3) Primary human keratinocytes were cultured in Epilife medium with EDGS (Life Technology, Cascade Biologics) following product instructions. 5 days after establishing the culture from frozen vials, cells were plated at 10,000/well (80 μL) in culture media in 384-well plates. 4 h after plating, 10 μL of 10× compound stocks were added. Final DMSO concentration was 1%. Immediately after compound addition, 10 μL of a mixture of recombinant human IL-17A (R&D System, Minneapolis, MN) (5 ng/mL final) and TNF-α (Sigma-Aldrich, St Louis, MO) (10 ng/mL final), or TNF-α alone (10 ng/mL) were added to the cells. Cell assay plates were incubated for 48 h at 37 °C in a tissue culture incubator. Culture supernatants were harvested for analysis of IL-8 production using kit K211ANB-2 (Meso Scale Discovery, Rockville, MD).

[6] = system: IL-17A-stimulated human keratinocytes; test: Primary human keratinocytes cell assay, IL-8 production stimulated by IL-17A and TNF-α; assay type: cell-based; settings: for IC50: Homo sapiens, Keratinocyte
Description: as §3

[7] = molecular target: human IL-17A (Homo sapiens, UniProt Q16552); test: SPR binding assay, immobilized IL-17A
Sequence of human IL-17A (Q16552 24-155): as the sequence (Q16552 24-155) above
Description: as §1, with “When compounds were tested in the presence of HAP, the running buffer contained 50 nM of HAP and all samples were prepared in the running buffer.” left out

Compound: C#CCNC(=O)[C@@H](Cc1ccc(NC(=O)[C@H](Cc2ccccc2F)NC(=O)c2ccnn2C)cc1)NC(=O)CC1(CC(=O)Nc2cccc(S(=O)(=O)F)c2)CCCC1 [Compound 4]
IC50 [1]: 200 nM
covalent labeling of IL-17A ([2]; in the absence of HAP): covalently labeled
principal site of modification of IL-17A ([2]; peptide mapping): Tyr85

Compound: CNC(=O)[C@H]1Cc2ccc(cc2)NC(=O)C(NC(=O)c2ccnn2C)Cc2cc(ccc2Cl)-c2cccc(c2)CCC(=O)N1 (some centres unmarked) [Compound 3]
binding to IL-17F (SPR) [3]: no measurable binding; also recorded: did not show measurable binding
binding to IL-17RA (SPR) ([4]; concentrations up to 13.3 μM): no measurable binding; also recorded: did not show measurable binding
IC50 [5]: > 30000 nM

Compound: CN(C)C(=O)CC1(CC(=O)NCCc2ccc(NC(=O)[C@H](Cc3ccccc3F)NC(=O)c3ccnn3C)cc2)CCCC1 [Compound 1]
modulation of IL-8 production in IL-17A-stimulated human keratinocytes ([6]; in the presence of TNF-α): insufficient to modulate
binding to IL-17F homodimer (SPR) ([3]; concentrations up to 40 μM): no measurable binding; also recorded: did not show any measurable binding
binding to IL-17RA (SPR) ([4]; concentrations up to 40 μM): no measurable binding; also recorded: did not show measurable binding

Kd ([7]; read-out: IL-17A SPR KD): 199 nM
Kd ([7]; read-out: SPR KD): < 200 nM
IC50 [1]: < 35 nM and 34 nM
IC50 ([6]; IL-17A 5 ng/mL and TNF-α 10 ng/mL, 48 h, read-out: Keratinocyte IC50 (IL-8)): 537 nM
IC50 ([6]; read-out: IC50, IL-17A-stimulated production of IL-8 in keratinocytes): < 540 nM
binding to IL-17F (SPR) [3]: did not show measurable binding
binding to IL-17RA (SPR) ([4]; concentrations up to 13.3 μM): did not show measurable binding
IC50 [5]: > 30000 nM
Compound: CNC(=O)[C@H]1Cc2ccc(cc2)NC(=O)[C@@H](NC(=O)c2ccnn2C)Cc2cc(ccc2Cl)Oc2ccc(cc2)C2(CCCC2)CC(=O)N1 [Compound 2]
